Consider one compound from patent US6949528B1, “Compositions containing lysophosphatidic acids which inhibit apoptosis and uses thereof” (priority 1998, dated 2005).

Molecules are shown by their SMILES.

Holding throughout (format): cell-based
For one assay, the system named is C3H/10T1/2 cells. The assay is described as follows: Anti-apoptotic activity assay: serum deprivation of C3H/10T1/2 cells. An excerpt:
In order to determine the […] of the claimed invention, the following method of analysis was used. The cell assay is described in detail in U.S. Pat. Nos. 5,637,486, 5,620,888, and 5,681,703, and Tomei et al. (1993) Proc Natl. Aci. 90:853-857. Briefly, mouse fibroblast C3H/10T1/2 cells (clone 8) were obtained from ATCC (Rockville, Md.) and were maintained in exponential growth phase in which the cell cycle is randomly distributed and no cells are arrested in G0, and in quiescence. Exponential growth phase was assured by seeding at 2000 cells per 1 ml (5 ml for 60 mm culture plate) five days prior to the beginning of the experiment. Assays were performed on cells only up to passage 15. At T=0, cultures were transferred to serum-free medium, as an appropriate stimulus, and seed extracts were added. Controls included 10^−7 and 5×10^−8 M 12-O-tetradecanoyl phorbol-13-acetate (TPA) to ensure the responsiveness of the cell culture. The samples were added to serum free medium and sterile filtered prior to addition to the cultures. Assays were performed in triplicate or quadruplicate. Analyses of the cell responses were made between 18 and 28 hours of serum deprivation. Two assays were performed on each cell culture plate consisting of differential cell counts.
1. All non-adherent or loosely adherent cells were removed from the culture dish and counted by appropriate techniques, typically counting by electronic particle counting instrument. These are the apoptotic cells, the serum deprived released cells (SDR), released by the action of cultivation in serum-free medium. Approximately 95% of these released cells are apoptotic as shown by both ultrastructure analysis and DNA fragmentation analysis.
2. The remaining adherent cells (ADH) were exposed to a buffered, typically pH 7.3, balanced salt solution such as a Hanks Balanced Salt Solution without calcium and magnesium salts containing 0.05% trypsin and 0.53 mM ethylene diaminetetraacetic acid (EDTA). Each culture was incubated at either room temperature or 37(C on a rocking platform to ensure uniform distribution of the trypsin reagent over the culture surface. After a standardized period of time, typically 10 minutes, the released cells were removed from each culture dish and measured by the same means as described above, typically electronic particle counting. This ADH cell count is comprised of both trypsin resistant and trypsin sensitive cells as described in U.S. Pat. Nos. 5,637,486, 5,620,888, and 5,681,703.
Anti-apoptotic activity is expressed in the following examples as the calculated concentration of material ((g/ml of media) required to save 50% of the cells released on serum free treatment.
The ability of 18:1-LPA an other LPAs to protect serum-starved cells from apoptotic death was measured using the C3H/10T1/2 cell assay, performed as described in Example 2. The effect of various compounds on the ability of lysophosphatidic acid to protect serum-starved cells from apoptotic death was also measured. Log phase cells were seeded in 60 mm Petri dishes at 175-350 cells per cm2 and maintained in Basal Medium Eagle (BME) supplemented with 10% Heat Inactivated Fetal Bovine Serum (HIFBS). On day 3 the cells were given fresh media. Treatment began on day 5 when the media containing serum was removed and replaced with the LPA mixture to be tested. After 24 hours of treatment, day 6, serum deprived released (SDR) cells (the […] cell population) and adherent (ADH) cells were separated and counted using an electronic cell counter (Coulter Corporation, Hialea, Fla.). […]

Assay [1] concerns rat neonatal cardiomyocytes. The assay is described as follows: Cardiomyocyte death induced by serum/glucose deprivation. To be noted: serum/glucose deprivation. How it is done:
(§1) Cardiomyocytes were prepared from hearts of day-old Sprague Dawley rats by trypsinization and mechanical disaggregation (Simpson, (1985)) Circ. Res. 56:884-894. The cells were resuspended in MEM, 1×MEM vitamins (Gibco), 5% fetal bovine serum and 50 U/ml penicillin-G and pre-plated for 30 minutes to reduce contamination of non-myocytes. The non-adherent cardiac myocytes were separated and seeded in 2 ml in 35 mm dishes at a density of 3.5×10^5 viable cells per ml. The cells were allowed to adhere for 16-24 hours in a 37° C./5% CO2 humidified incubator.
For serum deprivation, the medium was replaced with fresh serum-free RPMI, whereas serum/glucose deprivation was performed using glucose-free RPMI. The induction of cell death by adriamycin or C2-ceramide was accomplished by the addition of the agent prepared in serum-free RPMI. As a model of ischemia, cultures in serum and glucose free RPMI were placed in an airtight chamber and the latter was continuously perfused with oxygen-free gas overlay of 95% N2/5% CO2 for 8 hours at 37° C. To model reperfusion of the ischemic cells, 10% fetal bovine serum, 2 g/L of glucose were added and the cultures were returned to a normal oxygen gas overlay (37° C./5% CO2) in a humidified incubator for 16 hours.
T investigate effects of LPA, LPA plus other phospholipids, PEG or their mixtures on cell death, various combinations of these components were added to cells in serum free medium at the beginning of cytotoxic treatment.
(§2) Because cardiomyocytes are terminally differentiated non-dividing cells, viability was determined by measurement of the decrease in the relative number of adherent cells. […] Adherent cardiomyocytes were collected from culture dishes using 0.25% Trypsin/0.05% EDTA and counted on Coulter Counter ZM and Coulter Channelyzer 256.

Assay [2] relates to rat neonatal cardiomyocytes. The assay can be described thus: Cardiomyocyte death induced by ischemia and reperfusion. To be noted: in mixture with PEG, FIG. 14. How it is done: as §1
For serum deprivation, the medium was replaced with fresh serum-free RPMI, whereas serum/glucose deprivation was performed using glucose-free RPMI. The induction of cell death by adriamycin or C2-ceramide was accomplished by the addition of the agent prepared in serum-free RPMI. As a model of ischemia, cultures in serum and glucose free RPMI were placed in an airtight chamber and the latter was continuously perfused with oxygen-free gas overlay of 95% N2/5% CO2 for 8 hours at 37° C. […]
as §2

[3] abbreviates: serum-deprived C3H/10T1/2 cells, 24 hours of treatment.

As for `CCCCCCCC/C=C\CCCCCCCC(=O)OCC(O)COP(=O)(O)O` (stereo not shown) [18:1 LPA, oleoyl-lysophosphatidic acid, reference compound], the cells protected entry with C3H/10T1/2 cells (0.75 (g/ml added together with PS, FIG. 2)) was “approximately 75%”; in the assay on C3H/10T1/2 cells (1:1 PG:PC particles with 23.5% by weight 18:1-LPA, FIG. 3), “about 57%”; in the assay with C3H/10T1/2 cells (5 (M, FIG. 5), medium alone 30%) it was “about 62%”; in the assay on C3H/10T1/2 cells (5 (M, FIG. 6)), 75%; with C3H/10T1/2 cells (15 (M, FIG. 6)), 80%; in the assay on C3H/10T1/2 cells (30% (by weight) mixture with 1:1 PA:PI, equivalent to Five Phospholipid Mixture at 10 (g/ml, FIG. 7), medium alone 38%), “about 82%”. Further, the cells protected entry in the assay on C3H/10T1/2 cells (incorporated into phosphatidyl glycerol (PG), FIG. 2) is recorded as “up to 90%”. In addition, the efficacy result in the assay on C3H/10T1/2 cells (18:1-LPA/PG particles with 5 to 10 mol % PE-PEG (2000 MW), FIG. 2) is “reduced efficacy”. In the assay with C3H/10T1/2 cells (23.5 weight percent with PG, FIG. 3), the cells saved entry was “about 50%”. In addition, the “cells protected from apoptosis” value with C3H/10T1/2 cells (LPA equivalent to 10 (g/ml Five Phospholipid Mixture, 10% by weight with PG, FIG. 3)) is given as “approximately 65%”. Also, the anti-apoptotic activity entry in the assay with C3H/10T1/2 cells (combined with BME (containing calcium) and filtered) was “appeared to be inhibited”; in the assay on C3H/10T1/2 cells (combined with BSA in BME (containing calcium)), “preserved the anti-apoptotic activity”. The protection from apoptosis result in the assay on C3H/10T1/2 cells (combined with polyethylene glycol or BSA) was “protects serum-deprived 10T1/2 cells from apoptosis”. The “protection from serum deprivation-induced cell death” value in the assay on C3H/10T1/2 cells (incorporated into PC, PC/PE-PEG, or PC/EtPC, FIG. 8) was “effective in protecting cells from serum deprivation-induced cell death”. In addition, the “Concentration for Max Effect” value in the assay on C3H/10T1/2 cells (setting [3]) worked out at 10 µM. In addition, in the assay on C3H/10T1/2 cells (setting [3]), the “Maximum effect relative to 18:1 LPA” value is 100%. The “Concentration ranges for cardiomyocyte protection” value in assay [1] lay within 0.3 to 10 µM. Also, the “Maximum effect relative to 18:1 LPA in cardiomyocytes” value in assay [1] is reported as 100%. In addition, in assay [2], the “protection against cardiomyocyte death” value was “equally protect”.
